Measured values reported in article PMC4626104, “Inhibition on Proteasome β1 Subunit Might Contribute to the Anti-Cancer Effects of Fangchinoline in Human Prostate Cancer Cells” (PLoS ONE, 2015).
Where two headings read alike, the source gives them in different places.

Experiments:
[1] = tested on: caspase-3, PARP, LC-3B in PC-3 cells; experiment: Western blotting of apoptosis and autophagy markers in PSMB6 knockdown PC-3 cells; assay type: cell-based, human; details: 40 μM, 24 h
Protocol: Western blotting assay was conducted as described before. Briefly, an aliquot of protein (100 μg) sample was loaded onto a 12% SDS gel, separated electrophoretically, and transferred to a Nitrocellulose membrane (Bio-Rad). After the membrane was incubated with 10 mM TBS with […] and 5% dehydrated skim milk to block nonspecific protein binding, the membrane was incubated with primary antibodies overnight at 4°C. The primary antibodies (all from Cell Signaling Technology) used were rabbit polyclonal antibody against human IκB-α (#4812, 1:400), Bax (#2772, 1:400), proteasome β1 subunit (PSMB6) (#13267, 1:500), β-actin (#4967, 1:400) and mouse monoclonal antibody against human p27 Kip1 (#3688, 1:400) or ubiquitin (#3936, 1:1000). After TBS washes, blots were then incubated with secondary antibody for 2 h at room temperature at a 1:1000 dilution and then visualized using chemiluminescence (Pierce Biotechnology, Rockford, IL, USA). The secondary antibodies used were HRP-linked goat anti-rabbit IgG (#7074) and HRP-linked horse anti-mouse IgG (#7076), both from Cell Signaling Technology.
Validated siRNAs for PSMB6 (Sigma-Aldrich) were transfected into PC-3 cells by using Lipofectamine RNAiMAX (Invitrogen) according to the manufacturer’s protocol. Scrambled negative control siRNAs (Sigma-Aldrich) were used as negative control. […]

PC-3 tumor xenografts = experiment: PC-3 tumor xenograft experiments (tumor volume, TUNEL); assay type: in vivo, nude mice
Protocol: Male nude immunodeficient mice Balb/c-nu-nu, aged 4 weeks, were purchased from Shanghai Experimental Animal Center. All procedures involving animals were approved by the Institutional Animal Care and Use Committee of Shanghai Institute of Materia Medica, Chinese Academy of Sciences. On day 0, PC-3 cells (8×10^6 cells) suspended in 0.2 mL of serum-free RPMI 1640 were inoculated s.c. in the right flank of each mouse (six mice per group). 14 days after inoculation, mice were randomly divided into 3 groups and started injection with either vehicle control or fangchinoline at 25 mg/kg (ip., QD) or 50 mg/kg (ip., QD). Tumor sizes were measured every 4 days using calipers and their volumes were calculated using a standard formula: width^2×length/2. The relative tumor volume (RTV) was defined as the ratio of the tumor volume at a indicated time and the tumor volume at the start of drug treatment. Body weight was measured daily. On day 30 after inoculation, mice were sacrificed by CO2 inhalation and tumor xenografts were dissected. To visualize apoptosis in tumor xenografts, TUNEL labeling was conducted to detect apoptotic nuclei using In Situ Death Detection Kit (Roche Molecular Biochemicals). Briefly, tumor xenografts were fixed with 10% formalin solution at room temperature for 24 h and then embedded by paraffin. Specimens were heated for 1h by Water Bath-Slide Drier (LEICA H1 1220, German), incubated with dimethylbenzene for two times (8 min each) and then incubated with 100%, 95%, 90% and 85% ethanol for two times (3 min each). Specimens were then incubated with 0.1M Citrate buffer (pH 6.0) for microwave irradiation. After washing with PBS for two times (3 min each), slices were incubated with reaction buffer (from the In Situ Death Detection Kit) in a humid atmosphere at 37°C for 1 h. Slices were then washed with PBS three times (3 min each) to remove unincorporated fluorescein–deoxyuridine triphosphate. Nuclei were counterstained with 4,6-diamidino-2-phenylindole (DAPI) 1 μg/mL for 3 min and then washed with PBS for three times (3 min each). Images were captured using a 20X objective (Olympus BX51, Japan) on an epifluorescence microscope. Furthermore, the proteasome activities of tumor xenografts were assayed. Briefly, tumor xenografts were homogenerized in proteasome activity assay buffer using the FastPrep System (MP FastPrep-24, U.S.A), then centrifugation at 4°C for 30 min. The supernatants were then used for assay of proteasome activities using method as described above for analysis of cellular proteasome activities.

PC-3 cells = experiment: MTT assay of cell proliferation, PC-3 cells; assay type: cell-based; details: Homo sapiens, read-out: IC50 inhibiting cell proliferation
Protocol: The inhibitive effects of fangchinoline on proliferation of PC-3 cells or LnCap cells was observed by checking cell viability of cells using MTT assay as described before. Briefly, cells were seeded in 96-well plates at a density of 5×10^4 cells/mL for PC-3 cell and 4×10^4 cells/mL for LnCap cells. After overnight culture, the media were changed into fresh media containing various concentrations of fangchinoline or 0.1% DMSO (solvent control) for 24, 48 h or 72 h. Cell viability was evaluated by measuring the mitochondrial-dependent conversion of the yellow tetrazolium salt MTT to purple formazan crystals by metabolic active cells. The optical density (proportional to the number of live cells) was assessed with a Microplate Reader Bio-Rad 550 at 570 nm. IC50 value (half-maximal inhibitory concentration) was calculated by the Logit method.

[2] = 25mg/kg ip. QD, day 14 after inoculation (start of treatment)
[3] = 25mg/kg ip. QD, day 17 after inoculation
[4] = 25mg/kg ip. QD, day 21 after inoculation
[5] = 25mg/kg ip. QD, day 24 after inoculation
[6] = 25mg/kg ip. QD, day 27 after inoculation
[7] = 25mg/kg ip. QD, day 30 after inoculation
[8] = 50mg/kg ip. QD, day 14 after inoculation (start of treatment)
[9] = 50mg/kg ip. QD, day 17 after inoculation
[10] = 50mg/kg ip. QD, day 21 after inoculation
[11] = 50mg/kg ip. QD, day 24 after inoculation
[12] = 50mg/kg ip. QD, day 27 after inoculation
[13] = 50mg/kg ip. QD, day 30 after inoculation

COc1ccc2cc1Oc1ccc(cc1)C[C@H]1c3cc(c(OC)cc3CCN1C)Oc1c(O)c(OC)cc3c1[C@H](C2)N(C)CC3 [fangchinoline]
Effect of knockdown of proteasome β1 subunit on markers of apoptosis (caspase-3, PARP) and autophagy (LC-3B) [1]: ameliorated fangchinoline-induced apoptosis and autophagy
Tumor volume (Maximum) (PC-3 tumor xenografts; [2]): 519.59 mm^3
Tumor volume (Mean ± SEM) (PC-3 tumor xenografts; [2]): 370.0±42.37 mm^3
Tumor volume (Maximum) (PC-3 tumor xenografts; [3]): 512.11 mm^3
Tumor volume (Mean ± SEM) (PC-3 tumor xenografts; [3]): 356.5±51.63 mm^3
Tumor volume (Maximum) (PC-3 tumor xenografts; [4]): 812.68 mm^3
Tumor volume (Mean ± SEM) (PC-3 tumor xenografts; [4]): 577.7±53.05 mm^3
Tumor volume (Maximum) (PC-3 tumor xenografts; [5]): 1147.52 mm^3
Tumor volume (Mean ± SEM) (PC-3 tumor xenografts; [5]): 955.0±78.87 mm^3
Tumor volume (Maximum) (PC-3 tumor xenografts; [6]): 1439.56 mm^3
Tumor volume (Mean ± SEM) (PC-3 tumor xenografts; [6]): 1248±50.73 mm^3
Tumor volume (Maximum) (PC-3 tumor xenografts; [7]): 1655.05 mm^3
Tumor volume (Mean ± SEM) (PC-3 tumor xenografts; [7]): 1413±61.89 mm^3
Tumor volume (Maximum) (PC-3 tumor xenografts; [8]): 356.43 mm^3
Tumor volume (Mean ± SEM) (PC-3 tumor xenografts; [8]): 348.4±3.470 mm^3
Tumor volume (Maximum) (PC-3 tumor xenografts; [9]): 402.14 mm^3
Tumor volume (Mean ± SEM) (PC-3 tumor xenografts; [9]): 321.3±21.46 mm^3
Tumor volume (Maximum) (PC-3 tumor xenografts; [10]): 462.36 mm^3
Tumor volume (Mean ± SEM) (PC-3 tumor xenografts; [10]): 374.8±37.58 mm^3
Tumor volume (Maximum) (PC-3 tumor xenografts; [11]): 812.28 mm^3
Tumor volume (Mean ± SEM) (PC-3 tumor xenografts; [11]): 593.8±593.8 mm^3
Tumor volume (Maximum) (PC-3 tumor xenografts; [12]): 1008.40 mm^3
Tumor volume (Mean ± SEM) (PC-3 tumor xenografts; [12]): 857.0±41.00 mm^3
Tumor volume (Maximum) (PC-3 tumor xenografts; [13]): 1263.09 mm^3
Tumor volume (Mean ± SEM) (PC-3 tumor xenografts; [13]): 1120±66.28 mm^3
Growth of PC-3 xenografts (relative tumor volume) (PC-3 tumor xenografts; 25 and 50 mg/kg ip. QD): dose-dependently inhibit
Apoptosis in PC-3 xenografts (TUNEL labeling) (PC-3 tumor xenografts; animals treated with fangchinoline): apoptosis was induced
IC50 (PC-3 cells; 24 h): 27.5 ± 3.35 µM
IC50 (PC-3 cells; 48 h): 13.1 ± 1.58 µM
IC50 (PC-3 cells; 72 h): 7.25 ± 0.312 µM
